Converted amounts (≈) assume the structure as drawn.
Columns and labels:
[1] = tested on: CRC042 patient-derived tumor organoids; assay: Patient tumor organoid cytotoxicity; assay type: cell-based; conditions: Homo sapiens; single agent, Table 4A
[2] = tested on: DLD1CHD1L-EV cells; assay: DNA damage by γ-H2AX immunofluorescence; assay type: cell-based, human; conditions: low CHD1L expressing cells
Method: (§1) DLD1^CHD1L-OE cells were seeded into a 96-well PerkinElmer Cell Carrier plate and allowed to adhere overnight. Cells were then treated with the appropriate compound at 10 μM (0.5% DMSO) or with CHD1L inhibitor in combination SN-38 (1 μM), oxaliplatin (10 μM), and etoposide (10 μM). Cells were treated for 6 h. Media was aspirated and cells were washed with cold PBS. Cells were then fixed with 3% paraformaldehyde for 15 min at room temperature, fixed cells were washed with PBS three times. Cells were blocked for 1 hour at room temperature in 5% BSA, 0.3% Triton X-100 in PBS. Cells were then immunostained with phospho-(S139)-g-H2AX rabbit mAb using a 1:800 dilution in 1% BSA, 0.3% Triton X-100 in PBS at 4° C. overnight. Primary antibody was aspirated and cells were washed with PBS. Cells were incubated for 2 h at room temperature with goat anti-rabbit Alexa Fluor Plus™ 647 fluorescent secondary antibody at a concentration of 5 μg/mL in 1% BSA, 0.3% Triton X-100 in PBS. Cells were then washed with PBS, Hoechst 33342 stain was diluted to a concentration of 1:1000 in PBS, and added to cells for 15 min at room temperature. Cells were then imaged using a 20× water objective on the Opera Phenix™ HCS imaging system (PerkinElmer). Synergy was determined using the coefficient of drug interaction (CDI) equation, CDI=(A+B)/(AB). Synergy was defined in these experiments with a CDI<0.8. Additivity was 0.8-1.2 and antagonism was defined by a CDI>1.2.
(§2) γ-H2AX DNA damage combination studies with irinotecan (SN38). CHD1L inhibitor 6 alone and in combination with SN38 was assessed for DNA damage as previously reported [Abbott et al., 2020; Abraham et al., 2019]. Using DLD1 colorectal cancer cells that have low CHD1L endogenous expression and DLD1 cells engineered to overexpress CHD1L, DNA damage studies were conducted measuring the immunofluorescence of γ-H2AX, a well-established biomarker of DNA damage [Ji et al., 2017; Ivashkevich et al., 2012]. […] Media was aspirated and cells were washed with cold PBS. Cells were then fixed with 3% paraformaldehyde for 15 min at room temperature and washed with PBS three times. Cells were blocked for 1 hour at room temperature in 5% BSA, 0.3% Triton X-100 in PBS. Cells were then immunostained with phospho-(S139)-γ-H2AX rabbit mAb using a 1:800 dilution in 1% BSA, 0.3% Triton X-100 in PBS at 4° C. overnight. Primary antibody was aspirated, and cells were washed with PBS. Cells were incubated for 2 hours at room temperature with goat anti-rabbit Alexa Fluor Plus™ 647 fluorescent secondary antibody at a concentration of 5 μg/mL in 1% BSA, 0.3% Triton X-100 in PBS. Cells were then washed with PBS; Hoechst 33342 stain was diluted to a concentration of 1:1000 in PBS and added to cells for 15 min at room temperature. Cells were then imaged using a 20× water objective on the PerkinElmer Phenix HCS imaging system. […] CDI=(A+B)/(AB), synergy was determined with a CDI<0.8, additivity was 0.8-1.2, and antagonism was defined by a CDI>1.2. Welch's t-test statistical analysis was used to determine significance, where **=P≤0.01.

[3] = tested on: DLD1CHD1L-OE cells; assay: DNA damage by γ-H2AX immunofluorescence; assay type: cell-based, human; conditions: 6 h; for DNA damage (γ-H2AX), combination with SN-38: compound 10 μM + SN-38 1 μM, vs SN-38 alone
Method: as §1, §2

[4] = Aqueous solubility in PBS; assay type: physicochemical; conditions: aqueous with cosolvent or surfactant or cyclodextrin; 10% DMSO in PBS (pH 7.4)
Method: The measurement of solubility in PBS was conducted in duplicate experiments. The consensus LogP (CLogP) values were obtained using the SwissADME web tools. [Daina et al., 2017]

[5] = tested on: PDTO CRC102; assay: PDTO viability assay (CellTiter-Blue); assay type: cell-based; conditions: Homo sapiens, 72 h, read-out: cytotoxicity EC50
Method: CRC patient tumor tissues were obtained from the UCCC GI tissue bank and expanded following established protocols. [Morin et al., 1997]. Briefly, cells were seeded at 5,000 cells per well in 96-well plates and cultured by established methods [Franken et al., 2006] allowing PDTO formation over 72 h. […] PDTO cell viability was measured using CellTiter-Blue® reagent (Promega, Madison, Wis.). Media (80 μL) was aspirated from wells and 80 μL of the reagent was added and incubated for 4 h and cell viability was measured by fluorescence intensity using excitation 560 excitation and 590 emission.

SMILES: Cc1cc(Nc2ccc(NC(=O)Cc3cccs3)cc2)nc(N2CCCC2)n1 [Compound 6, N-(4-((6-methyl-2-(pyrrolidin-1-yl)pyrimidin-4-yl)amino)phenyl)-2-(thiophen-2-yl)acetamide]
- IC50 [1]: 18.6 µM
- DNA damage (γ-H2AX), combination with SN38 [2]: nor does it synergize with SN38
- DNA damage (γ-H2AX), compound alone [2]: does not induce significant DNA damage
- DNA damage (γ-H2AX), combination with etoposide ([2]; etoposide 10 μM): significant synergy
- DNA damage (γ-H2AX activity), compound alone ([3]; 10 μM): no significant DNA damage
- DNA damage (γ-H2AX), combination with SN-38 [3]: synergized
- DNA damage (γ-H2AX), combination with SN-38 ([3]; listed as 6.0): synergy
- DNA damage (γ-H2AX), combination with etoposide ([3]; compound 10 μM + etoposide 10 μM, vs etoposide alone): synergized
- DNA damage (γ-H2AX), combination with oxaliplatin ([3]; compound 10 μM + oxaliplatin 10 μM): no synergy
- solubility [4]: 700 µg/mL (≈ 1780 µM)
- EC50 [5]: 11.6 ± 2 µM

From patent US20230103444A1 (The Regents of the University of Colorado, a Body Corporate, priority 2020, published 2023)
